Converted amounts (≈) assume the structure as drawn. Where two headings read alike, the source gives them in different places.
Experiments:
[1] = system: murine CD4^+ T cells; assay: Activation of CD4+ T cells by PMA/mB7; assay type: cell-based, murine (BALB/c); conditions: in words
Description: (A) Costimulation of T cells with anti-CD3 mAb and mB7. […] (B) Costimulation of T cells with mB7 and PMA. […] All cultures were incubated for 48 hours and pulsed with 1 μCi [ ^3 H] thymidine/well for the last 6 hours of the incubation period to assay for T cell proliferation.
(A) Costimulation of T cells with anti-CD3 mAb and mB7. 2×10^5 purified BALB/c CD4^+ T lymphocytes were stimulated with the indicated concentrations of anti-CD3 mAb in the presence of medium (.largecircle.), 2×10^4 paraformaldehyde-fixed CHO-mB7 cells (.quadrature.), or 2×10^4 paraformaldehyde-fixed CHO-mB7 cells in the presence of 0.1 nM FK506 (.gradient.), 1 nM FK506 (Δ), or 10 nM FK506 ( ). (B) Costimulation of T cells with mB7 and PMA. 2×10^5 purified BALB/c CD4^+ T lymphocytes were stimulated with the indicated concentrations of PMA and either medium (.largecircle.), 2×10^4 paraformaldehyde-fixed CHO-mB7 cells (.quadrature.), or paraformaldehyde-fixed CHO-mB7 cells in the presence of 0.1 nM FK506 (.gradient.), 1 nM FK506 (Δ), or 10 nM FK506 ( ). All cultures were incubated for 48 hours and pulsed with 1 μCi [^3 H] thymidine/well for the last 6 hours of the incubation period to assay for T cell proliferation.
(A) Costimulation of T cells with anti-CD3 mAb and mB7. […]

[2] = system: allogeneic skin graft rejection, CBA mice; assay: Allogeneic skin graft rejection (BALB/c to CBA); assay type: in vivo, mouse; parameters: key to Graft Scores: 0: rejection; +: no rejection; conditions: 0.01 mg/kg
Description: Allogeneic skin grafting. The effects of mycalamide A on the rejection of allogeneic skin grafts were determined using the BALB/c→CBA skin graft model. Skin grafts were prepared from BALB/c donors as follows: donors were sacrificed by cervical dislocation and hair shaved from back, sides, and torso. A depilatory agent was used to remove any remaining hair. The prepared skin area was then swabbed with a Betadine and alcohol solution. The skin was removed by making an incision at the base of the tail, and the skin was lifted and separated from the underlying muscle in two sections. The skin was then placed in a sterile petri dish containing sterile, ice cold normal saline. A sterile, #7 cord borer was used to punch out approximately 16 graft discs from each animal skin preparation. Recipient CBA mice were anesthetized with 1.5 cc ketamine:xylamine. The back of each recipient animal was shaved and a depilatory agent used to remove excess hair. The prepared area was swabbed with Betadine:alcohol, and a small plug of skin, approximately the size of the prepared grafts, was removed by excision. The skin graft plug was then placed in the center of the excised region and the resulting transplanted area sprayed with a barrier film (liquid skin). Animals were placed one to a cage and supplied with sterile food and water, ad libitum. Mice were observed each day for signs of rejection of the graft (a shrinking and thickening of the graft with eventual sloughing).

[3] = system: human peripheral blood lymphocytes (PBL); assay: Mitogen-induced proliferation of human peripheral blood lymphocytes; assay type: cell-based; conditions: Lymphocyte; for activity at 0.5 µg/mL: 5.0 × 10^-1 μg/ml; for activity at 0.05 µg/mL: 5.0 × 10^-2 μg/ml; for activity at 0.005 µg/mL: 5.0 × 10^-3 μg/ml; for activity at 0.0005 µg/mL: 5.0 × 10^-4 μg/ml; for activity at 50 pg/mL: 5.0 × 10^-5 μg/ml; for activity at 5 pg/mL: 5.0 × 10^-6 μg/ml; for activity at 500 fg/mL: 5.0 × 10^-7 μg/ml; for activity at 50 fg/mL: 5.0 × 10^-8 μg/ml; for activity at 5 fg/mL: 5.0 × 10^-9 μg/ml; for activity at 5e-10 µg/mL: 5.0 × 10^-10 μg/ml; for activity at 5e-11 µg/mL: 5.0 × 10^-11 μg/ml
Description: Preparation of human peripheral blood leukocyte (PBL) suspensions. Human peripheral blood suspensions were prepared from Leukotrap blood filters as follows: Leukotrap filters containing processed leukocytes from random, unrelated blood donors were obtained from the Indian River Blood Bank (Vero Beach, Fla.). Buffy-coat blood cell suspensions were recovered by reverse-flow phosphate-buffered saline purging and centrifugation for 15 minutes at 475× g. Buffy coats were removed, and 5 ml of the suspension was layered onto 5 ml of Histopaque gradient material. The Histopaque gradients were centrifuged at 475× g for 30 minutes. Lymphocytes were removed from the Histopaque-medium interface, and washed twice with 10 ml of PBS (Dulbecco's phosphate-buffered saline without CaCl2 and MgCl2.6H2 O). The final cell pellet was resuspended in TCM, and the cell concentration adjusted to 2×10^6 cells/ml.

[4] = Con A, read-out: Con A, % of control
[5] = PHA, read-out: PHA, % of control

In the case of `C=C1CC(OC)(C(O)C(=O)NC2OCOC3C2OC(CC(O)CO)C(C)(C)C3OC)OC(C)C1C` (stereo not shown) [Mycalamide A, mycalamide A], the “effect on PMA/CHO-mB7 stimulation of CD4+ cells” value [1] is reported as “blocks activation”, the “% Alive” value ([2]; Q2D × 7, 1-14 IP, D35) is reported as 0% and the “Graft Scores” value ([2]; Q2D × 7, 1-14 IP, D35) is reported as “+”. The mean rejection time ([2]; twice daily, intraperitoneally for 14 days) was 17.8 days, the “effect on rejection of allogeneic skin grafts” value ([2]; twice daily, intraperitoneally for 14 days, in words) was “suppressed the normal rejection of allogeneic skin grafts” and the activity at 0.5 µg/mL [3, 4] was 0%. The activity at 0.05 µg/mL [3, 4] was 0%, the activity at 0.005 µg/mL [3, 4] was 0% and the activity at 0.0005 µg/mL [3, 4] was 10%. The activity at 50 pg/mL [3, 4] was 44%, the activity at 5 pg/mL [3, 4] was 74% and the activity at 500 fg/mL [3, 4] was 78%. For the same molecule, the activity at 50 fg/mL [3, 4] was 82%, the activity at 5 fg/mL [3, 4] was 90% and the activity at 5e-10 µg/mL [3, 4] was 99%. The activity at 5e-11 µg/mL [3, 4] was 93%, the activity at 0.5 µg/mL [3, 5] was 0% and the activity at 0.05 µg/mL [3, 5] was 0%. The activity at 0.005 µg/mL [3, 5] was 0%, the activity at 0.0005 µg/mL [3, 5] was 9% and the activity at 50 pg/mL [3, 5] was 41%. For the same molecule, the activity at 5 pg/mL [3, 5] was 41%, the activity at 500 fg/mL [3, 5] was 40% and the activity at 50 fg/mL [3, 5] was 43%. For the same molecule, the activity at 5 fg/mL [3, 5] was 42%, the activity at 5e-10 µg/mL [3, 5] was 36% and the activity at 5e-11 µg/mL [3, 5] was 47%. For the same molecule, the IC50 ([3]; read-out: IC50, PHA stimulation of human PBL) was ~0.0057 ng/mL (≈ 0.0113 nM).

— patent US5298523A, “Method for treating transplant patients using mycalamide compounds” (priority 1992, dated 1994)
